{"source": "ChEMBL document CHEMBL1287713", "about": "“Discovery and selectivity-profiling of 4-benzylamino 1-aza-9-oxafluorene derivatives as lead structures for IGF-1R inhibitors” (Bioorg Med Chem Lett, 2010)", "key": {"[1]": {"target": "Insulin-like growth factor 1 receptor (Homo sapiens, UniProt P08069)", "sequence (P08069 31-736 limits assumed)": "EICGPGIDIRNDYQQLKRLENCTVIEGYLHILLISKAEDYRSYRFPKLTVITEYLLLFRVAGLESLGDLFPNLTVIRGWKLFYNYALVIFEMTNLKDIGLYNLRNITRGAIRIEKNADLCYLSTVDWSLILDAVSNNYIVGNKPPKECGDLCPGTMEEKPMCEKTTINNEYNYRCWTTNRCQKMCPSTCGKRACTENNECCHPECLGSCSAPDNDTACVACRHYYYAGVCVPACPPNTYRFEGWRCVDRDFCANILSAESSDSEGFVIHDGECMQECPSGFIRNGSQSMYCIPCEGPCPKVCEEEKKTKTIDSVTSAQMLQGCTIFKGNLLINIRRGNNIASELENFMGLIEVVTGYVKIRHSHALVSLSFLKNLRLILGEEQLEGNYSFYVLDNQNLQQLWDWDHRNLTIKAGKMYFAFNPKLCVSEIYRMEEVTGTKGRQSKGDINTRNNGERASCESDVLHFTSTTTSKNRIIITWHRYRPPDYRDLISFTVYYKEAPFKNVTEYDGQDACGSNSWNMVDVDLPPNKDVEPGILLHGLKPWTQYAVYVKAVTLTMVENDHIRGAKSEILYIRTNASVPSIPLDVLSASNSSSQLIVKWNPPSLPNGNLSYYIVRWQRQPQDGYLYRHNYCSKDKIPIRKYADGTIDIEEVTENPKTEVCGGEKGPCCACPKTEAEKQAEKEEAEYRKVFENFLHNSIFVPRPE", "sequence (P08069 741-1367 limits assumed)": "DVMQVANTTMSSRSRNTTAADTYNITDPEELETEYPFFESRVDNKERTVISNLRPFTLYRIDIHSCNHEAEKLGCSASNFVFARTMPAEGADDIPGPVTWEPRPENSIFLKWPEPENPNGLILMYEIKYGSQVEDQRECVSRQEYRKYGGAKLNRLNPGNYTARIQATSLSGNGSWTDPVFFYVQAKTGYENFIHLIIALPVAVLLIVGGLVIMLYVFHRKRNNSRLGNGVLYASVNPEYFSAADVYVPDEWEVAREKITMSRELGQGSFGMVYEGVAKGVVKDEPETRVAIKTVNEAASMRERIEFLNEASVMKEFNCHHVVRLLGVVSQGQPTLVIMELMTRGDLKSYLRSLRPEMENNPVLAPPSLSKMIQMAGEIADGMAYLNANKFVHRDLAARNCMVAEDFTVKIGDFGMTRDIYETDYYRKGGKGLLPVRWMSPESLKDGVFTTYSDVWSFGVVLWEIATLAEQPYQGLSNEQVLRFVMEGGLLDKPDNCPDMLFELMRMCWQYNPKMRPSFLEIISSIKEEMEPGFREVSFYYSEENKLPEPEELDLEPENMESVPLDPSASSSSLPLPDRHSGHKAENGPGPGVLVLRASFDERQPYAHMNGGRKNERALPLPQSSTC", "test": "Inhibition of IGF1R"}, "[2]": {"target": "Epidermal growth factor receptor (Homo sapiens, UniProt P00533)", "sequence (P00533 whole entry)": "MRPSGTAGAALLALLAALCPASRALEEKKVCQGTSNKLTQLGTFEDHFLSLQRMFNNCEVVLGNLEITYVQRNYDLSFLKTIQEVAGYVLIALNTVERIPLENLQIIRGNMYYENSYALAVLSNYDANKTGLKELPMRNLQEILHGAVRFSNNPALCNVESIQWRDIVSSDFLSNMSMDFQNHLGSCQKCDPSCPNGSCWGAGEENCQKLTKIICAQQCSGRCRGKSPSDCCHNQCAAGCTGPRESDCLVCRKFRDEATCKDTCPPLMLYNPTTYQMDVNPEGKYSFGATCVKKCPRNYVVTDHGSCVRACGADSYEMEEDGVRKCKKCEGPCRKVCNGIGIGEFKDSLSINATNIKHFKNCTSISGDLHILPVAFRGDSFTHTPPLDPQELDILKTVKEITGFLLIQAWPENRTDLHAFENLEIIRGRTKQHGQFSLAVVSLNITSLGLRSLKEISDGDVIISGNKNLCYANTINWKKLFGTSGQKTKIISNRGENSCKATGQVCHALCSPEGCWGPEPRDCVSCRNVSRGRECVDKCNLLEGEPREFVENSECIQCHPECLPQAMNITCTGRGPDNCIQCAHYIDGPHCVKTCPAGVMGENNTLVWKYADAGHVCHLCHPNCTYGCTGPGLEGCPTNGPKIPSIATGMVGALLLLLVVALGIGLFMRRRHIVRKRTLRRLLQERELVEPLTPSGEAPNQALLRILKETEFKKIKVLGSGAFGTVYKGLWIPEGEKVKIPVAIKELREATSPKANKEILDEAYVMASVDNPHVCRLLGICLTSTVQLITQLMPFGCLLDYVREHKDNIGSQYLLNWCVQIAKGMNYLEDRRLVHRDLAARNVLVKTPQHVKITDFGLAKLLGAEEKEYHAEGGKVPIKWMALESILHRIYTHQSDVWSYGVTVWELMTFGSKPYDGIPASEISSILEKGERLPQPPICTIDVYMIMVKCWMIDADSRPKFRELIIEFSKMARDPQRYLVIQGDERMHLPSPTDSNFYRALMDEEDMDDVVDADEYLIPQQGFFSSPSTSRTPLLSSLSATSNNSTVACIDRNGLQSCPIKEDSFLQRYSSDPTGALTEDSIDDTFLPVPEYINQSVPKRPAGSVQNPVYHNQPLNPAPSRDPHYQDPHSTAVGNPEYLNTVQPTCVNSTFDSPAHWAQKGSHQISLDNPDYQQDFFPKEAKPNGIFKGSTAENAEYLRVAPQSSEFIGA", "test": "Inhibition of EGFR"}, "[3]": {"target": "Vascular endothelial growth factor receptor 3 (Homo sapiens, UniProt P35916)", "sequence (P35916 whole entry)": "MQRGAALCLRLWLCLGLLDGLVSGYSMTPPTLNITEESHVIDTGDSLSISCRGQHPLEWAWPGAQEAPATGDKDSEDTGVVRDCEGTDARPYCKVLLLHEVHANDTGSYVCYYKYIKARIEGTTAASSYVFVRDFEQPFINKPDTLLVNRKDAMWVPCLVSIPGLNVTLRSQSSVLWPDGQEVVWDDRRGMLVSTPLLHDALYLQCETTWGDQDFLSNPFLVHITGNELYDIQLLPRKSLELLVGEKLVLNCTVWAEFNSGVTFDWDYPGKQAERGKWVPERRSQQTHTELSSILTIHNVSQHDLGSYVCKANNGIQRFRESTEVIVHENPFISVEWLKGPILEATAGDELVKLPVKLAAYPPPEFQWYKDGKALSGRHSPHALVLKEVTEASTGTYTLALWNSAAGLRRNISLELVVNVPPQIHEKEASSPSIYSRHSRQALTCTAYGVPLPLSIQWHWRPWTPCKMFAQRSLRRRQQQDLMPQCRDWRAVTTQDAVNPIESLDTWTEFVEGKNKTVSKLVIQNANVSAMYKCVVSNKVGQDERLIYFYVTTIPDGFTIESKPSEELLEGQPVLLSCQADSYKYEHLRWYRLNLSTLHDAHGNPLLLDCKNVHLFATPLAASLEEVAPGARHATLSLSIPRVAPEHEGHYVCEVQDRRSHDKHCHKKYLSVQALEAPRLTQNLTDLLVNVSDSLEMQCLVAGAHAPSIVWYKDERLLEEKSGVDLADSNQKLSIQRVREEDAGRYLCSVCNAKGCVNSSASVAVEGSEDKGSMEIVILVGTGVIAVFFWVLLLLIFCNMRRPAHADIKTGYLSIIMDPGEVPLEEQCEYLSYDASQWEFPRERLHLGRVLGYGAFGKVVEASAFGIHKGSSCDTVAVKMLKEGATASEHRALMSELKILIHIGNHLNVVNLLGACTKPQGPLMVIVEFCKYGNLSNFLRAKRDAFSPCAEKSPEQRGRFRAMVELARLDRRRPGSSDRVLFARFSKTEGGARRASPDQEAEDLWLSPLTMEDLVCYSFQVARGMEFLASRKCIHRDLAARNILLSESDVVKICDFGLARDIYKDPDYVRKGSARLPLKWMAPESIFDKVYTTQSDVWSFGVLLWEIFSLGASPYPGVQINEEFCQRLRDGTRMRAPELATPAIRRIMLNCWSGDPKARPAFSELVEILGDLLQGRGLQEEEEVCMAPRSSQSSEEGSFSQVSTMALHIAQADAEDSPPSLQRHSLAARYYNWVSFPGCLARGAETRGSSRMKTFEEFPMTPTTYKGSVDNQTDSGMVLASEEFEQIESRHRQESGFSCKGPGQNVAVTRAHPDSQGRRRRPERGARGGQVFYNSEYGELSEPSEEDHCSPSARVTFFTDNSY", "test": "Inhibition of VEGFR3"}, "[4]": {"target": "Vascular endothelial growth factor receptor 2 (Homo sapiens, UniProt P35968)", "test": "Inhibition of VEGFR2"}, "[5]": {"target": "Tyrosine-protein kinase ABL1 (Homo sapiens, UniProt P00519)", "test": "Inhibition of human ABL1"}, "[6]": {"target": "Tyrosine-protein kinase ABL2 (Homo sapiens, UniProt P42684)", "test": "Inhibition of human ABL2"}, "[7]": {"target": "Focal adhesion kinase 1 (Homo sapiens, UniProt Q05397)", "test": "Inhibition of human FAK"}, "[8]": {"target": "Insulin receptor (Homo sapiens, UniProt P06213)", "test": "Inhibition of human InsR"}, "[9]": {"target": "Insulin receptor-related protein (Homo sapiens, UniProt P14616)", "test": "Inhibition of human InsRR"}, "[10]": {"target": "Angiopoietin-1 receptor (Homo sapiens, UniProt Q02763)", "test": "Inhibition of human TIE2"}, "[11]": {"target": "Interleukin-1 receptor-associated kinase 1 (Homo sapiens, UniProt P51617)", "test": "Inhibition of human IRAK1"}, "[12]": {"target": "LIM domain kinase 1 (Homo sapiens, UniProt P53667)", "test": "Inhibition of human LIMK1"}, "[13]": {"target": "Cyclin-dependent kinase 4/cyclin D1 (Homo sapiens, UniProt P11802)", "test": "Inhibition of human CDK4/Cyclin D1", "format": "protein-complex assay"}, "[14]": {"target": "CDK6/cyclin D1 (Homo sapiens, UniProt Q00534)", "test": "Inhibition of human CDK6/Cyclin D1", "format": "protein-complex assay"}, "[15]": {"target": "Cyclin-dependent kinase 5/CDK5 activator 1 (Homo sapiens, UniProt Q00535)", "test": "Inhibition of human CDK5/p25", "format": "protein-complex assay"}, "[16]": {"target": "Dual specificity protein kinase CLK1 (Homo sapiens, UniProt P49759)", "test": "Inhibition of human CLK1"}, "[17]": {"target": "Dual specificity tyrosine-phosphorylation-regulated kinase 1A (Homo sapiens, UniProt Q13627)", "test": "Inhibition of human DYRK1A"}, "[18]": {"target": "Homeodomain-interacting protein kinase 1 (Homo sapiens, UniProt Q86Z02)", "test": "Inhibition of human HIPK1"}, "[19]": {"target": "Aurora kinase A (Homo sapiens, UniProt O14965)", "test": "Inhibition of human Aurora A"}, "[20]": {"target": "Aurora kinase C (Homo sapiens, UniProt Q9UQB9)", "test": "Inhibition of human Aurora C"}, "[21]": {"target": "Protein kinase C gamma type (Homo sapiens, UniProt P05129)", "test": "Inhibition of human PKC-gamma"}, "[22]": {"target": "Protein kinase C iota type (Homo sapiens, UniProt P41743)", "sequence (P41743 whole entry)": "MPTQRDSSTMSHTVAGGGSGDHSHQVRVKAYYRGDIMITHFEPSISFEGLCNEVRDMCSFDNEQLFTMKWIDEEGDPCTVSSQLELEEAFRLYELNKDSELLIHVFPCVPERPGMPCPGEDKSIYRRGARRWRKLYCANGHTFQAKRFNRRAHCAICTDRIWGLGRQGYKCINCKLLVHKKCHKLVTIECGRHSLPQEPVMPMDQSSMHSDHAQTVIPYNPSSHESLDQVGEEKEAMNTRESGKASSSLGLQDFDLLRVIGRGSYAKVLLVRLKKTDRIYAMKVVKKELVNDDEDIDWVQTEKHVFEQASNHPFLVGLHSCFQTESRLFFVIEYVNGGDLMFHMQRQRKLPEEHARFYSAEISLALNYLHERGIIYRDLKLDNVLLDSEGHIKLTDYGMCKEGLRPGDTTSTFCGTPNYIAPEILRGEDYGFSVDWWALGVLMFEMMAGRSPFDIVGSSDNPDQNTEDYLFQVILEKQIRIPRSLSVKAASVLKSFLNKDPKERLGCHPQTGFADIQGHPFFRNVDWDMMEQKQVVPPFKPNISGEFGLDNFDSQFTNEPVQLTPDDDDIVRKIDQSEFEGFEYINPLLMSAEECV", "test": "Inhibition of human PKC-iota"}, "[23]": {"target": "Mitogen-activated protein kinase 3 (Homo sapiens, UniProt P27361)", "test": "Inhibition of human ERK1"}, "[24]": {"target": "Mitogen-activated protein kinase 14 (Homo sapiens, UniProt Q16539)", "test": "Inhibition of human p38-alpha"}, "[25]": {"target": "Misshapen-like kinase 1 (Homo sapiens, UniProt Q8N4C8)", "test": "Inhibition of human INK1"}, "[26]": {"target": "Serine/threonine-protein kinase VRK1 (Homo sapiens, UniProt Q99986)", "test": "Inhibition of human VRK1"}, "[27]": {"target": "Wee1-like protein kinase (Homo sapiens, UniProt P30291)", "test": "Inhibition of human WEE1"}, "[28]": {"target": "Serine/threonine-protein kinase Nek3 (Homo sapiens, UniProt P51956)", "sequence (P51956 whole entry)": "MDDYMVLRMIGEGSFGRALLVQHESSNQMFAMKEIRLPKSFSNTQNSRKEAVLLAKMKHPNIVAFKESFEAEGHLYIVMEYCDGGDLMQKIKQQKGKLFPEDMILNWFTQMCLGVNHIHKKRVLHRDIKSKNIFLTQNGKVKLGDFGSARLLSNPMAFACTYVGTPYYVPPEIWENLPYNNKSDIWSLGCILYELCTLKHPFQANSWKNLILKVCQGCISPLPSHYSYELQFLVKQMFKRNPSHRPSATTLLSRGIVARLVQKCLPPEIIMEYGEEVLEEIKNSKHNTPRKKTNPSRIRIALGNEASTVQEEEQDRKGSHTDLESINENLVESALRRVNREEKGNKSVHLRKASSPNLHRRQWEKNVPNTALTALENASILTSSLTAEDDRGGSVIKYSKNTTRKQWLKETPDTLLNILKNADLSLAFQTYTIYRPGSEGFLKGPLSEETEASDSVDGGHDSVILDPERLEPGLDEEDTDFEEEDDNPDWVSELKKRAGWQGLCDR", "test": "Inhibition of human Nek3"}, "[29]": {"target": "Serine/threonine-protein kinase PLK1 (Homo sapiens, UniProt P53350)", "test": "Inhibition of human PLK1"}, "[30]": {"test": "Growth inhibition of human NCI60 cells by SBR assay", "format": "functional"}, "[31]": {"test": "Cytotoxicity against human NCI60 cells by SBR assay", "format": "functional"}}, "data": [{"smiles": "c1ccc(CNc2ccnc3oc4ccccc4c23)cc1", "values": [{"measurement": "Ki", "setting": "[1]", "value": 0.37, "unit": "µM"}, {"measurement": "Ki", "setting": "[2]", "value": 0.59, "unit": "µM"}, {"measurement": "Ki", "setting": "[3]", "value": 1.09, "unit": "µM"}, {"measurement": "Ki", "setting": "[4]", "value": 0.47, "unit": "µM"}]}, {"smiles": "c1ccc(CCNc2ccnc3oc4ccccc4c23)cc1", "values": [{"measurement": "Ki", "setting": "[1]", "value": 2.11, "unit": "µM"}, {"measurement": "Ki", "setting": "[2]", "value": 3.45, "unit": "µM"}, {"measurement": "Ki", "setting": "[3]", "value": 9.39, "unit": "µM"}, {"measurement": "Ki", "setting": "[4]", "value": 2.01, "unit": "µM"}]}, {"smiles": "c1ccc2c(CNc3ccnc4oc5ccccc5c34)cccc2c1", "values": [{"measurement": "Ki", "setting": "[1]", "value": 0.57, "unit": "µM"}, {"measurement": "Ki", "setting": "[2]", "value": 0.68, "unit": "µM"}, {"measurement": "Ki", "setting": "[3]", "value": 1.09, "unit": "µM"}, {"measurement": "Ki", "setting": "[4]", "value": 0.3, "unit": "µM"}]}, {"smiles": "COc1ccc(CNc2ccnc3oc4ccccc4c23)cc1", "values": [{"measurement": "Ki", "setting": "[1]", "value": 0.15, "unit": "µM"}, {"measurement": "Ki", "setting": "[3]", "value": "> 1000", "unit": "µM"}, {"measurement": "Ki", "setting": "[4]", "value": "> 1000", "unit": "µM"}, {"measurement": "IC50", "setting": "[5]", "value": 392, "unit": "µM"}, {"measurement": "Ki", "setting": "[6]", "value": "> 1000", "unit": "µM"}, {"measurement": "IC50", "setting": "[7]", "value": 194, "unit": "µM"}, {"measurement": "IC50", "setting": "[8]", "value": 622, "unit": "µM"}, {"measurement": "IC50", "setting": "[9]", "value": 182, "unit": "µM"}, {"measurement": "Ki", "setting": "[10]", "value": "> 1000", "unit": "µM"}, {"measurement": "Ki", "setting": "[11]", "value": "> 1000", "unit": "µM"}, {"measurement": "IC50", "setting": "[12]", "value": 759, "unit": "µM"}, {"measurement": "IC50", "setting": "[13]", "value": 376, "unit": "µM"}, {"measurement": "IC50", "setting": "[14]", "value": 129, "unit": "µM"}, {"measurement": "Ki", "setting": "[15]", "value": "> 1000", "unit": "µM"}, {"measurement": "Ki", "setting": "[16]", "value": "> 1000", "unit": "µM"}, {"measurement": "Ki", "setting": "[17]", "value": "> 1000", "unit": "µM"}, {"measurement": "Ki", "setting": "[18]", "value": "> 1000", "unit": "µM"}, {"measurement": "Ki", "setting": "[19]", "value": "> 1000", "unit": "µM"}, {"measurement": "Ki", "setting": "[20]", "value": "> 1000", "unit": "µM"}, {"measurement": "Ki", "setting": "[21]", "value": "> 1000", "unit": "µM"}, {"measurement": "Ki", "setting": "[22]", "value": "> 1000", "unit": "µM"}, {"measurement": "Ki", "setting": "[23]", "value": "> 1000", "unit": "µM"}, {"measurement": "Ki", "setting": "[24]", "value": "> 1000", "unit": "µM"}, {"measurement": "Ki", "setting": "[25]", "value": "> 1000", "unit": "µM"}, {"measurement": "IC50", "setting": "[26]", "value": 129, "unit": "µM"}, {"measurement": "Ki", "setting": "[27]", "value": "> 1000", "unit": "µM"}, {"measurement": "Ki", "setting": "[28]", "value": "> 1000", "unit": "µM"}, {"measurement": "IC50", "setting": "[29]", "value": 271, "unit": "µM"}]}, {"smiles": "Clc1cccc(CNc2ccnc3oc4ccccc4c23)c1", "values": [{"measurement": "Ki", "setting": "[1]", "value": 0.58, "unit": "µM"}, {"measurement": "Ki", "setting": "[2]", "value": "> 1000", "unit": "µM"}, {"measurement": "Ki", "setting": "[3]", "value": "> 1000", "unit": "µM"}, {"measurement": "Ki", "setting": "[4]", "value": "> 1000", "unit": "µM"}]}, {"smiles": "Clc1ccc(CNc2ccnc3oc4ccccc4c23)cc1", "values": [{"measurement": "Ki", "setting": "[1]", "value": 0.11, "unit": "µM"}, {"measurement": "Ki", "setting": "[2]", "value": 0.5, "unit": "µM"}, {"measurement": "Ki", "setting": "[3]", "value": 0.68, "unit": "µM"}, {"measurement": "Ki", "setting": "[4]", "value": 0.18, "unit": "µM"}, {"measurement": "GI50", "setting": "[30]", "value": 33.9, "unit": "µM"}, {"measurement": "LC50", "setting": "[31]", "value": "> 100", "unit": "µM"}]}, {"smiles": "c1cncc(CNc2ccnc3oc4ccccc4c23)c1", "values": [{"measurement": "Ki", "setting": "[1]", "value": "> 1000", "unit": "µM"}, {"measurement": "Ki", "setting": "[2]", "value": "> 1000", "unit": "µM"}, {"measurement": "Ki", "setting": "[3]", "value": "> 1000", "unit": "µM"}, {"measurement": "Ki", "setting": "[4]", "value": "> 1000", "unit": "µM"}]}, {"smiles": "N[C@@H](Cc1ccc(N(CCCl)CCCl)cc1)C(=O)O", "values": [{"measurement": "GI50", "setting": "[30]", "value": 33.1, "unit": "µM"}]}, {"smiles": "COc1cc([C@@H]2c3cc4c(cc3[C@@H](O[C@@H]3O[C@@H]5CO[C@@H](C)O[C@H]5[C@H](O)[C@H]3O)[C@H]3COC(=O)[C@H]23)OCO4)cc(OC)c1O", "note": "[ETOPOSIDE]", "values": [{"measurement": "GI50", "setting": "[30]", "value": 38.9, "unit": "µM"}]}, {"smiles": "CCc1c2c(nc3ccc(OC(=O)N4CCC(N5CCCCC5)CC4)cc13)-c1cc3c(c(=O)n1C2)COC(=O)[C@]3(O)CC", "note": "[IRINOTECAN]", "values": [{"measurement": "GI50", "setting": "[30]", "value": 14.1, "unit": "µM"}]}]}
